These results are taken from patent US11098060B2, “Macrocycle containing aminopyrazole and pyrimidine and pharmaceutical composition and use thereof” (CHIA TAI TIANQING PHARMACEUTICAL GROUP CO., LTD., priority 2017, dated 2021).

The target of one experiment is TrkA^WT kinase (Homo sapiens (Human), UniProt P04629). Kind of experiment: Assay for inhibitory activity (IC50) against TrkA^WT (HTRF). The following applies: TrkA 1 nM, ATP 40 μM, TK peptide 1 μM, 60 min at 23° C. Format: biochemical. In general terms: TR-FRET usually uses a lanthanide donor and a delayed reading to cut background.
TrkA^WT kinase, sequence (P04629 33-796): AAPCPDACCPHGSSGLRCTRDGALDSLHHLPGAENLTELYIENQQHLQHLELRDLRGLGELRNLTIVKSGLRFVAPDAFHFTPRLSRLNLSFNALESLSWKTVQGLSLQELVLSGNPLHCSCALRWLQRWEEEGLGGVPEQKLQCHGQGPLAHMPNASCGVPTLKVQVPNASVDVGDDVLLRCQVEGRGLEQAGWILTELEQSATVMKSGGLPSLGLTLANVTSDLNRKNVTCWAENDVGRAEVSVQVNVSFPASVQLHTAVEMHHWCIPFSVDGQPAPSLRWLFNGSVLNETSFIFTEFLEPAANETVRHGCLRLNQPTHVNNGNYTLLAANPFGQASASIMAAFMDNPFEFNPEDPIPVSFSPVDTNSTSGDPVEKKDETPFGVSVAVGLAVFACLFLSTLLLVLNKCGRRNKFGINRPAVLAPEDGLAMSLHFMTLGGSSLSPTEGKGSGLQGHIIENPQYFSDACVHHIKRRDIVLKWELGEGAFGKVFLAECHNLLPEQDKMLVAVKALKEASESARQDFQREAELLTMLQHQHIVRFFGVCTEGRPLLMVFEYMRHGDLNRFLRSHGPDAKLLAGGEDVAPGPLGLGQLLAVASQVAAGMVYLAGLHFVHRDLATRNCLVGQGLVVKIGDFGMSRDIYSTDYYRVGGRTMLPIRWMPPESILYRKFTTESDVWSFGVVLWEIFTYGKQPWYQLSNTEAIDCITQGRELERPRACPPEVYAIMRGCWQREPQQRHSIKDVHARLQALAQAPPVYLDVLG
In experiment [1] the target is TrkA^G595R (Kinase domain) kinase (Homo sapiens (Human), UniProt P04629, G595R). Kind of experiment: Assay for inhibitory activity (IC50) against TrkA^G595R kinase (HTRF). It counts as biochemical. The following applies: kinase 0.2 nM, TK peptide 1 μM, 120 min at 23° C.
TrkA^G595R (Kinase domain) kinase, sequence (P04629 510-781 G595R): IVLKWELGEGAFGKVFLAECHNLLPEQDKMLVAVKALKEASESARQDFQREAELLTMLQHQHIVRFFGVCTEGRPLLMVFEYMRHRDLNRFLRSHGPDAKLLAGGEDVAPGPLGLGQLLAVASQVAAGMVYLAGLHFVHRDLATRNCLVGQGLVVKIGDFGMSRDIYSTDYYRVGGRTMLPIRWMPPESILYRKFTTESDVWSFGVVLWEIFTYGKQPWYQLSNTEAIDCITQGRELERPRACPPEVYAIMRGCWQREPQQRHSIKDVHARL

The IC50 is the concentration needed to halve the response being measured. Read a high IC50 as a need for much substance. Turning to `Nc1nn2ccc3nc2c1C(=O)NCCCOc1ncccc1[C@H]1CCCN31` [Example 6, (R,1^3E,1^4E)-1^2-amino-4-oxa-8-aza-1(5,3)-pyrazolo[1,5-a]pyrimidine-3(3,2)-pyridine-2 (1,2)-pyrrolidylcyclononanephane-9-one], at TrkA^WT kinase, the IC50 worked out at 0.47 ± 0.26 nM.

As to `Nc1nn2ccc3nc2c1C(=O)NCCCc1ncc(F)cc1[C@H]1C[C@H](F)CN31` [Example 27, (1^3E,1^4E,2^2R,2^4S)-1^2-amino-2^4,3^5-difluoro-7-aza-1(5,3)-pyrazolo[1,5-a]pyrimidine-3(3,2)-pyridine-2(1,2)-pyrrolidylcyclooctanephane-8-one], the IC50 in experiment [1] worked out at 0.68 ± 0.26 nM; against TrkA^WT kinase it was 0.21 ± 0.03 nM.

In the case of `Nc1nn2ccc3nc2c1C(=O)NCCCn1cc(F)cc(c1=O)C1CCCN31` (stereo not shown) [Example 24, (1^3E,1^4E)-1^2-amino-3^5-fluoro-3^1,3^2-dihydro-7-aza-1(5,3)-pyrazolo[1,5-a]pyrimidine-3(3,1)-pyridine-2(1,2)-pyrrolidylcyclooctanephane-3^2,8-dione], the IC50 on TrkA^WT kinase is 0.85 ± 0.07 nM.

In turn, `CC1(C)CNC(=O)c2c(N)nn3ccc(nc23)N2C[C@@H](F)CC2c2cc(F)cnc2OC1` (stereo partly shown) [Example 18, (1^3E,1^4E,2^2R,2^4S)-1^2-amino-2^4,3^5-difluoro-6,6-dimethyl-4-oxa-8-aza-1(5,3)-pyrazolo [1,5-a]pyrimidine-3(3,2)-pyridine-2(1,2)-pyrrolidylcyclononanephane-9-one] came in with a concentration for half-maximal inhibition (IC50) in experiment [1] of 1.24 ± 0.15 nM.

With `Nc1nn2ccc3nc2c1C(=O)NCCCn1cc(F)cc(c1=O)[C@H]1CCCN31` [Example 22, (1^3E,1^4E,2^2R)-1^2-Amino-3^5-fluoro-3^1,3^2-dihydro-7-aza-1(5,3)-pyrazolo[1,5-a]pyrimidine-3(3,1)-pyridine-2(1,2)-pyrrolidylcyclooctanephane-3^2,8-dione], at TrkA^WT kinase, the 50% inhibitory concentration (IC50) amounted to 0.57 ± 0.03 nM.

At TrkA^WT kinase, `Nc1nn2ccc3nc2c1C(=O)NCCOc1ncccc1C1CCCN31` (stereo not shown) [Example 11, (1^3E, 1^4E)-1^2-amino-4-oxa-7-aza-1(5,3)-pyrazolo[1,5-a]pyrimidine-3(3,2)-pyridine-2 (1,2)-pyrrolidylcyclooctanephane-8-one] registered an IC50 of 1.04 ± 0.34 nM.

For `Nc1nn2ccc3nc2c1C(=O)NCCCCc1ncc(F)cc1[C@H]1C[C@H](F)CN31` [Example 31, (1^3E,1^4E,2^2R,2^4S)-1^2-amino-2^4,3^5-difluoro-8-aza-1(5,3)-pyrazolo[1,5-a]pyrimidine-3(3,2)-pyridine-2(1,2)-pyrrolidylcyclononanephane-9-one], the concentration for half-maximal inhibition (IC50) in experiment [1] turned out to be 1.45 ± 0.11 nM.

`Nc1nn2ccc3nc2c1C(=O)NCCCOc1ncc(F)cc1C1C[C@@H](F)CN31` (stereo partly shown) [Example 13, (1^3E,1^4E, 2^2R,2^4R)-1^2-amino-2^4,3^5-difluoro-4-oxa-8-aza-1(5,3)-pyrazolo[1,5-a]pyrimidine-3(3,2)-pyridine-2 (1,2)-pyrrolidylcyclononanephane-9-one] yielded an IC50 against TrkA^WT kinase of 0.64 ± 0.02 nM.

On to “(1^3E,1^4E,2^2R,2^4S)-1^2-Amino-2^4,3^5-difluoro-4-oxa-8-aza-1(5,3)-pyrazolo[1,5-a]pyrimidin-3(3,2)-pyridine-2(1,2)-pyrrolidylcyclononanephane-9-one [Example 12]”, for which the IC50 worked out at 0.34 ± 0.04 nM in experiment [1] and 0.72 ± 0.04 nM against TrkA^WT kinase.

In turn, `Nc1nn2ccc3nc2c1C(=O)NCCOc1ccc(F)cc1[C@@H]1CCCN31` [Example 20, (S,1^3E,1^4E)-1^2-amino-3^5-fluoro-4-oxa-7-aza-1(5,3)-pyrazolo [1,5-a]pyrimidine-2(1,2)-pyrrolidine-3(1,2)-benzocyclooctanephane-8-one] had an IC50 on TrkA^WT kinase of 3.8 ± 0.21 nM.

For `CN1CCCOc2ncc(F)cc2[C@H]2C[C@H](F)CN2c2ccn3nc(N)c(c3n2)C1=O` [Example 17, (1^3E,1^4E,2^2R,2^4S)-1^2-amino-2^4,3^5-difluoro-8-methyl-4-oxa-8-aza-1(5,3) -pyrazolo[1,5-a] pyrimidine-3(3,2)-pyridine-2(1,2)-pyrrolidylcyclononanephane-9-one], the results for the IC50 (in experiment [1]; against TrkA^WT kinase) were 1.05 ± 0.16 nM and 0.61 ± 0.06 nM, respectively.

With `Nc1nn2ccc3nc2c1C(=O)NCCOc1ccc(F)cc1[C@H]1CCCN31` [Example 8, (R,1^3E,1^4E)-1^2-amino-3^5-fluro-4-oxa-7-aza-1(5,3)-pyrazolo[1,5-a]pyrimidine-2(1,2)-pyrrolidine-3(1,2)-benzocyclooctanephane-8-one], the half-maximal inhibitory concentration (IC50) was found to be 2.08 ± 0.45 nM in experiment [1] and 0.41 ± 0.04 nM against TrkA^WT kinase.

Turning to `Nc1nn2ccc3nc2c1C(=O)NCCCCc1cccc(n1)C1CCCN31` (stereo not shown) [Example 3, (1^3E,1^4E)-1^2-amino-4-oxa-8-aza-1(5,3)-pyrazolo[1,5-a]pyrimidine-3(2,6)-pyridine-2 (1,2)-pyrrolidylcyclononanephane-9-one], the IC50 against TrkA^WT kinase turned out to be 0.84 ± 0.12 nM.

For `Nc1nn2ccc3nc2c1C(=O)NCCCOc1ccc(F)cc1[C@H]1CCCN31` [Example 10, (R,1^3E,1^4E)-1^2-amino-3^5-fluro-4-oxa-8-aza-1(5,3)-pyrazolo[1,5-a]pyrimidine-2(1,2)-pyrrolidine-3(1,2)-benzocyclononanephane-9-one], the IC50 in experiment [1] is 1.92 ± 0.1 nM; against TrkA^WT kinase, 0.8 ± 0.21 nM.

The compound `Nc1nn2ccc3nc2c1C(=O)NCCCOc1ncc(F)cc1C1CCCN31` (stereo not shown) [Example 2] yielded a 50% inhibitory concentration (IC50) at TrkA^WT kinase of 0.57 ± 0.1 nM.

For `C[C@H]1CCc2ncc(F)cc2[C@H]2C[C@H](F)CN2c2ccn3nc(N)c(c3n2)C(=O)N1` [Example 29, (1^3E,1^4E,2^2R,24S,6S)-1^2-amino-2^4,3^5-difluoro-6-methyl-7-aza-1(5,3)-pyrazolo[1,5-a]pyrimidine-3(3,2)-pyridine-2(1,2) pyrrolidylcyclooctanephane-8-one], the IC50 in experiment [1] was 1.08 ± 0.24 nM; against TrkA^WT kinase, 0.25 ± 0.02 nM.

Compound `C[C@H]1CNC(=O)c2c(N)nn3ccc(nc23)N2CCC[C@@H]2c2cc(F)ccc2O1` [Example 32, (1^3E,1^4E,2^2R,5S)-1^2-amino-3^5-fluoro-5-methyl-4-oxa-7-aza-1(5,3)-pyrazolo[1,5-a]pyrimidine-(1,2)-pyrrolidine-3(1,2)-benzocyclooctanephane-8-one] came in with an IC50 in experiment [1] of 1.28 ± 0.05 nM.

As to `C[C@@H]1CCc2ncc(F)cc2[C@H]2CCCN2c2ccn3nc(N)c(c3n2)C(=O)N1` [Example 28, (1^3E,1^4E,2^2R,6R)-1^2-amino-3^5-fluoro-6-methyl-7-aza-1(5,3)-pyrazolo[1,5-a]pyrimidine 3(3,2)-pyridine-2(1,2) pyrrolidylcyclooctanephane-8-one], the 50% inhibitory concentration (IC50) in experiment [1] was 1.01 ± 0.36 nM; against TrkA^WT kinase it was 0.31 ± 0.03 nM.

Consider `C[C@@H]1COc2ncc(F)cc2[C@H]2C[C@H](F)CN2c2ccn3nc(N)c(c3n2)C(=O)N1` [Example 19, (1^3E,1^4E,2^2R,2^4S,6R)-1^2-amino-2^4, 3^5-difluoro-6-methyl-4-oxa-7-aza-1(5,3)-pyrazolo[1,5-a] pyrimidine-3(3,2)-pyridine-2(1,2)-pyrrolidylcyclooctanephane-8-one], for which the IC50 in experiment [1] was 0.73 ± 0.07 nM.

As to `Nc1nn2ccc3nc2c1C(=O)NCC(F)(F)COc1ncc(F)cc1[C@H]1C[C@H](F)CN31` [Example 35, (1^3E,1^4E,2^2R,2^4S)-1^2-amino-2^4,3^5,6,6-tetrafluoro-4-oxa-8-aza-1(5,3)-pyrazol[1,5-a]pyrimidine-3(3,2)-pyridine-2(1,2)-pyrrolidylcyclononanephane-9-one], in experiment [1], half-maximal inhibition (IC50) required 1.36 ± 0.02 nM.

As for `Nc1nn2ccc3nc2c1C(=O)NCCOc1ncccc1[C@H]1CCCN31` [Example 5, (R,1^3E,1^4E)-1^2-amino-4-oxa-7-aza-1(5,3)-pyrazolo[1,5-a]pyrimidine-3(3,2)-pyridine-2 (1,2)-pyrrolidylcyclooctanephane-8-one], at TrkA^WT kinase, half-maximal inhibition (IC50) required 0.37 ± 0.04 nM.
